Test: Oxygen absorption (time to absorb one percent oxygen)
Settings: 1.0 part antioxidant in SBR-1006

## C=CC(=O)Oc1c(Cc2cc(C)cc(C(C)(C)C)c2O)cc(C)cc1C(C)(C)C [Example 8, 2-(2-hydroxy-3-tert.butyl-5-methylbenzyl)-4-methyl-6-tert.butyl phenyl acrylate]
  Hours to Absorb 1% O2: 315 h

Source: patent US4414408A, “Phenolic antioxidants” (The Goodyear Tire & Rubber Company, priority 1982, dated 1983)
